Assay results taken from US10703733B2, “MCL-1 inhibitors” (Gilead Sciences, Inc., priority 2018, dated 2020).

Target: MCL-1/Bim interaction (recombinant human MCL-1 protein, residues 171-327; biotinylated human Bim peptide, residues 51-76) (Homo sapiens (Human), UniProt Q07820)
Test: MCL-1/Bim Binding AlphaLISA Assay
Details: 0.0625 nM 6xHis-Mcl-1 (171-327), 0.0625 nM biotinylated-Bim peptide
Protocol: MCL-1/Bim Binding AlphaLISA Assay.
Inhibition of the MCL-1 and Bim interaction was measured in the following AlphaLISA assay.
Recombinant human MCL-1 protein (C-terminal 6×His Tagged Mcl-1 containing residues 171-327) was generated at Gilead Sciences, Inc. (Foster City, Calif.). A biotinylated peptide derived from human Bim (residues 51-76) was purchased from CPC Scientific (Sunnyvale, Calif.). (CPC 834113). AlphaLISA anti-6His-acceptor beads (AL128R), AlphaScreen Streptavidin donor beads (6760002B), and Proxiplate-384 Plus (6008289) were purchased from PerkinElmer.
The AlphaLISA assay was performed in a 384-well Proxiplate in a total volume of […]. The reaction mixture contained 0.0625 nM 6×His-Mcl-1 (171-327), 0.0625 nM biotinylated-Bim peptide, 10 μg/mL AlphaLISA anti-6×His-AlphaLISA acceptor beads, […] AlphaScreen streptavidin donor beads, and serially diluted test compounds in the binding buffer (20 mM Hepes, pH 7.5 (Teknova H1035); 150 mM NaCl (Promega V4221); 0.002% Brij 35 (Thermo Scientific 20150); 1 mM Dithiothreitol (DTT) Solution (Affymetrix 70726); 0.01% BSA (BioLabs B9000S)). 1,000×test compounds were pre-spotted onto 384-well Proxiplate (Labcyte Echo) by Echo 555 Liquid Handler (Labcyte Inc., San Jose, Calif.) followed by incubation of 5 μl Mcl-1(171-327) for 1 hour. Then 5 μL Bim (51-76) was added and incubated for 2 hours. Five μL AlphaLISA anti-6His-AlphaLISA acceptor beads were then added for 1 hour followed by addition of 5 μL AlphaScreen streptavidin donor beads for 1 hour. The reaction plates were then read on an Envision multimode reader (PerkinElmer) using AlphaScreen settings. […] Percent inhibition was calculated as shown below: % Inhibition=100%*(Well−Neg)/(Pos−Neg) Neg: negative control, DMSO Pos: positive control, no Mcl-1 protein, no biotinylated-Bim peptide

MCL-1/Bim interaction (recombinant human MCL-1 protein, residues 171-327; biotinylated human Bim peptide, residues 51-76), sequence (Q07820 171-327): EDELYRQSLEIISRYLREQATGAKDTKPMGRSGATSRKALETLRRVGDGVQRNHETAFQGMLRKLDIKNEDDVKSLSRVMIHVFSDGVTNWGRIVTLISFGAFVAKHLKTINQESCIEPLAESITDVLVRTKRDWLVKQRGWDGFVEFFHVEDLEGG

| IC50 [nM] | Structure (SMILES) |
| --- | --- |
| 0.203 | COC[C@H]1Cn2cc(C(=O)N[S@@]3(=O)=NC(=O)c4ccc5c(c4)N(C[C@@H]4CC[C@H]4[C@@H](OC)/C=C/C[C@H](C)[C@H]3C)C[C@@]3(CCCc4cc(Cl)ccc43)CO5)cc2CO1 [Example 215] |
| 0.041 | COc1nn(C)cc1C(=O)N[S@@]1(=O)=NC(=O)c2ccc3c(c2)N(C[C@@H]2CC[C@H]2[C@@H](OC)/C=C/[C@H](O)[C@H](C)C1)C[C@@]1(CCCc2cc(Cl)ccc21)CO3 [Example 279] |
| 0.046 | CO[C@H]1/C=C/CCC[S@@](=O)(NC(=O)c2cnn(C)c2)=NC(=O)c2ccc3c(c2)N(C[C@@H]2CC[C@H]21)C[C@@]1(CCCc2cc(Cl)ccc21)CO3 [Example 113] |
| 0.068 | CO[C@H]1/C=C/C[C@H](C)C[S@@](=O)(NC(=O)N[C@H]2C[C@H]2F)=NC(=O)c2ccc3c(c2)N(C[C@@H]2CC[C@H]21)C[C@@]1(CCCc2cc(Cl)ccc21)CO3 [Example 115] |
| 0.7 | COCC(=O)NS1(=O)=NC(=O)c2ccc3c(c2)N(C[C@@H]2CC[C@H]2[C@@H](OC)/C=C/CCC1)C[C@@]1(CCCc2cc(Cl)ccc21)CO3 (single isomer, unassigned) [Example 8] |
| 10.6 | CO[C@H]1/C=C/C[C@H](C)C[S@](N)(=O)=NC(=O)c2ccc3c(c2)N(C[C@@H]2CC[C@H]21)C[C@@]1(CCCc2cc(Cl)ccc21)CO3 (single isomer, unassigned) [Example 109] |
| 1.06 | COc1nn(C)cc1C(=O)NS1(=O)=NC(=O)c2ccc3c(c2)N(C[C@@H]2CC[C@H]2[C@@H](OC)/C=C/C[C@H](C)C1)C[C@@]1(CCCc2cc(Cl)ccc21)CO3 (single isomer, unassigned) [Example 388] |
| 0.05 | COc1nn(C)cc1C(=O)N[S@@]1(=O)=NC(=O)c2ccc3c(c2)N(C[C@@H]2CC[C@H]2[C@@H](OC)/C=C/C[C@H](C)C1)C[C@@]1(CCCc2cc(Cl)ccc21)CO3 [Example 154] |
| 0.1 | CO[C@H]1/C=C/C[C@H](C)[C@@H](C)[S@@](=O)(NC(=O)COC2CCOCC2)=NC(=O)c2ccc3c(c2)N(C[C@@H]2CC[C@H]21)C[C@@]1(CCCc2cc(Cl)ccc21)CO3 [Example 108] |
| 0.046 | CO[C@H]1/C=C/C[C@H](C)C[S@@](=O)(NC(=O)N[C@H]2C[C@@](C)(OC)C2)=NC(=O)c2ccc3c(c2)N(C[C@@H]2CC[C@H]21)C[C@@]1(CCCc2cc(Cl)ccc21)CO3 [Example 193] |

| Structure (SMILES) | IC50 [nM] |
| --- | --- |
| CCOc1nn(C)cc1C(=O)N[S@@]1(=O)=NC(=O)c2ccc3c(c2)N(C[C@@H]2CC[C@H]2[C@@H](OC)/C=C/C[C@H](C)C1)C[C@@]1(CCCc2cc(Cl)ccc21)CO3 [Example 194] | 0.03 |
| COC1CCCn2cc(C(=O)N[S@@]3(=O)=NC(=O)c4ccc5c(c4)N(C[C@@H]4CC[C@H]4[C@@H](OC)/C=C/C[C@H](C)C3)C[C@@]3(CCCc4cc(Cl)ccc43)CO5)cc2C1 (stereo partly shown) [Example 190] | 0.055 |
| C[C@@H]1[C@@H](C)C/C=C/[C@H](O)[C@@H]2CC[C@H]2CN2C[C@@]3(CCCc4cc(Cl)ccc43)COc3ccc(cc32)C(=O)N=[S@]1(=O)NC(=O)c1cc2n(c1)CC1(COC1)OC2 [Example 239] | 0.042 |
